Measurements: patent US20250144054A1, “SMALL MOLECULE STAT3 INHIBITOR FOR TREATING TRIPLE NEGATIVE BREAST CANCER” (UNIVERSITY OF MARYLAND, BALTIMORE, priority 2022, published 2025)

Experiments:
STAT3 [1] = test: Western blot of P-STAT3 (Y705), STAT3, Cyclin D1, Cleaved Caspase-3 in 4T1 cells; type: cell-based, murine; conditions: 4T1, overnight, vs DMSO
Procedure: (§1) (A) MDA-MB-231, SUM159, and 4T1 cell lines were treated with DMSO or LLL12B overnight and the expression levels of P-STAT3 (Y705), STAT3, Cyclin D1, and Cleaved Caspase-3 were analyzed by Western blot. GAPDH served as a protein loading control. (B) MDA-MB-231 cells were treated with DMSO or C188-9 overnight and the expression levels of P-STAT3 (Y705), STAT3, Cyclin D1, and Cleaved Caspase-3 were analyzed by Western blot. (C) MDA-MB-231, SUM159, and 4T1 cells were seeded in a 96-well plate and treated with DMSO or LLL12B for 5 hours and a Caspase-3/7 Fluorescence Assay Kit was used to detect the activation of caspase-3/7. (D) MDA-MB-231, SUM159, and 4T1 cell lines were treated with DMSO or LLL12B for 8-12 hours, and flow cytometry was performed to analyze annexin V and PI staining. The quantification of apoptotic cells was shown in the right panel. ** P<0.01, *** P<0.001 and ****P<0.0001.
(§2) SiRNA and transfection. STAT3 siRNA and Negative Control siRNA (Cell Signaling Technology, Danvers, MA, USA) were used to knock down STAT3 in MDA-MB-231, SUM159, and 4T1 cell lines. Cells were transfected with STAT3 siRNA or Negative Control siRNA using Lipofectamine RNAiMAX (Invitrogen, Carlsbad, CA, USA) according to the manufacturer's instructions. After 72 hours, cell viability was examined by MTT cell viability assay, and the transfection efficiency was examined by western blot.
Western blot. Cells were collected and total protein was extracted using cell lysis buffer (Cell Signaling Technology, Danvers, MA, USA). Protein concentration was determined using the Pierce BCA Protein Assay Kit (Thermo Fisher Scientific, Waltham, MA, USA) according to the manufacturer's instructions. Equal amounts of protein were separated by 10% SDS-PAGE gels and transferred to PVDF membranes. Membranes were blocked in 5% non-fat milk at room temperature and probed with specific antibodies P-STAT3 (Y705), STAT3, Cyclin D1, Cleaved Caspase-3, P-STAT1 (Y701), STAT1, P-ERK, ERK or GAPDH (1:1000, Cell Signaling Technology, Danvers, MA, USA) at 4° C. overnight. […]

STAT3 [2] = conditions: human medulloblastoma cells, refs [25,31]; cited from earlier work
SUM159 cells [3] = test: Annexin V and PI flow cytometry, SUM159 cells; type: cell-based, human; conditions: SUM159, 8-12 hours, vs DMSO
Procedure: Flow cytometry analysis. Flow cytometry was performed to detect cell apoptosis. The APC Annexin V Apoptosis Detection Kit (Biolegend, San Diego, CA, USA) was used for Annexin V staining. Cells were seeded in a 35 mm culture dish at a density of 1×10^5 cells/dish. After overnight incubation, cells were treated with DMSO or LLL12B for 8-12 hours. Cells were harvested and stained with Annexin V-APC and propidium iodide (PI) according to the manufacturer's instructions. After staining, cells were counted using a FACSCanto II flow cytometer (BD Biosciences, San Jose, CA, USA).

SUM159 cells [4] = test: Colony formation assay, SUM159 cells; type: cell-based, human; conditions: SUM159, 24 hours treatment, 7 days drug-free, vs DMSO
Procedure: Colony formation assay. MDA-MB-231, SUM159, and 4T1 cells were seeded in a 6-well plate at a density of 1000 cells/well and treated with DMSO or LLL12B for 24 hours, and then cultured in a drug-free culture medium for 7 days. Colonies were fixed with methanol for 30 min and stained with 1% crystal violet in 25% methanol for 2 hours at room temperature.

4T1 cells = test: Wound healing assay, 4T1 cells; type: cell-based, murine; conditions: 4T1, vs DMSO
Procedure: Wound healing assay. MDA-MB-231, SUM159, and 4T1 cells were seeded in a 6-well plate and cultured until fully confluent. A straight scratch crossing the monolayer was created using a 200 μl pipette tip and images of scratched areas were taken. Next, cells were treated with DMSO or LLL12B. Then, images were taken until the scratch of DMSO-treated cells was closed and the relative migration (%) was calculated.

[5] = refs [25,28]; cited from earlier work
STAT3 [6] = test: Western blot of P-STAT3 (Y705), STAT3, Cyclin D1, Cleaved Caspase-3 in MDA-MB-231 cells; type: cell-based, human; conditions: MDA-MB-231, overnight
Procedure: as §1, §2
Western blot. Cells were collected and total protein was extracted using cell lysis buffer (Cell Signaling Technology, Danvers, MA, USA). Protein concentration was determined using the Pierce BCA Protein Assay Kit (Thermo Fisher Scientific, Waltham, MA, USA) according to the manufacturer's instructions. Equal amounts of protein were separated by 10% SDS-PAGE gels and transferred to PVDF membranes. Membranes were blocked in 5% non-fat milk at room temperature and probed with specific antibodies P-STAT3 (Y705), STAT3, Cyclin D1, Cleaved Caspase-3, P-STAT1 (Y701), STAT1, P-ERK, ERK or GAPDH (1:1000, Cell Signaling Technology, Danvers, MA, USA) at 4° C. overnight. The blots were visualized using SuperSignal™ West Femto Maximum Sensitivity Substrate (Thermo Fisher Scientific, Waltham, MA, USA) and an Amersham Imager 680 (GE Healthcare Life Sciences, Marlborough, MA, USA) after incubating with horseradish peroxidase (HRP)-conjugated anti-rabbit secondary antibody (1:5000, Cell Signaling Technology, Danvers, MA, USA).

SUM149 xenograft = SUM149 xenograft model in vivo
From the text: Next, the efficacy of LLL12B and Talazoparib was examined in the SUM149 xenograft model in vivo. […] V: Vehicle; L: LLL12B; T: Talazoparib. Western blot analysis further confirmed the inhibition of p-STAT3 in LLL12B and combination treated tumors (FIG. 16D).

P-STAT3 (Y705) = test: Immunofluorescence staining of P-STAT3 (Y705) localization in SUM159 cells; type: cell-based, human; conditions: 8 hours, vs DMSO
Procedure: (A) The chemical structures of LLL12B and LLL12. The carbamate ester bond of LLL12B is hydrolytically cleaved by the tumor-associated plasmin to release LLL12. (B) SUM159 cells were seeded in a 6-well plate and treated with LLL12B for 8 hours. Cells were stained with Phospho-Stat3 (Tyr705) and DAPI (indicated by arrows). Green: P-STAT3 (Y705); Blue: DAPI. T47D (C) and MDA-MB-231 (D) breast cancer cells were pretreated with DMSO or LLL12B in a serum-free medium for 2 hours and stimulated with 50 ng/ml of IL-6, IFN-γ, or EGF for additional 30 minutes. Cells were collected and analyzed by Western blot. GAPDH served as a protein loading control.
Immunofluorescence staining. SUM159 cells were seeded in a 6-well plate and treated with LLL12B or DMSO for 8 hours. Cells were fixed with 4% paraformaldehyde (PFA) for 15 minutes at room temperature and then permeabilized with ice-cold 100% methanol for 10 minutes at −20° C. After blocking in 3% Bovine Serum Albumin (BSA)/0.1% Triton X-100, cells were incubated with rabbit anti-Phospho-Stat3 (Tyr705) (1:100, Cell Signaling Technology, Danvers, MA, USA) overnight at 4° C., then with secondary antibody for 1 hour at room temperature. Cells were photographed using a Leica fluorescence microscope (Leica Microsystems Inc, Deerfield, IL, USA).

In the case of `CN(C)C(=O)Oc1cccc2c1C(=O)c1cccc(S(N)(=O)=O)c1C2=O` [LLL12B], the “Cyclin D1 expression” value (STAT3 [1]) is reported as “decreased”, the “expression of Cleaved Caspase-3” value (STAT3 [1]) is reported as “enhanced” and the “phosphorylation of STAT3” value (STAT3 [1]) is reported as “decreased”. The “IL-6 induced STAT3 phosphorylation” value (STAT3 [2]) was “inhibited”, the “percentage of apoptotic cells” value (SUM159 cells [3]) was “significantly increased” and the colony numbers (SUM159 cells [4]) was “significant reduction”. The “wound closure (cell migration)” value (4T1 cells) was “effectively inhibited”, the “in vivo pharmacokinetic properties compared to LLL12” value [5] was “superior” and the “concentration that inhibited P-STAT3 and Cyclin D1 in Western blot” value (STAT3 [6]) was 1 µM. The “Cyclin D1 expression” value (STAT3 [6]; vs DMSO) was “decreased”, the “expression of Cleaved Caspase-3” value (STAT3 [6]; vs DMSO) was “enhanced” and the “phosphorylation of STAT3” value (STAT3 [6]; vs DMSO) was “decreased”. The “p-STAT3 in tumors, Western blot” value (SUM149 xenograft) was “inhibition” and the “distribution of P-STAT3 (Y705) in the nucleus” value (P-STAT3 (Y705)) was “blocked”.
